This note sets out measurements from PMC7456963, “HPLC-Based Activity Profiling for Antiprotozoal Compounds in Croton gratissimus and Cuscuta hyalina” (Frontiers in Pharmacology, 2020).

Read-outs that look alike come from different tables or passages of the source.

The subject of series [1] is L. donovani strain MHOM/ET/67/L82 axenic amastigotes. The series can be described thus: Activity against Leishmania donovani axenic amastigotes (resazurin). Format: cell-based. The settings on record: for Selectivity index (SI): IC50 in L6 cells divided by IC50 in L. donovani axenic amastigotes: L6 cells vs axenic L. donovani; for IC50: Leishmania donovani, mean ± absolute deviation, at least two replicates. The protocol: Amastigotes of L. donovani strain MHOM/ET/67/L82 were grown under an atmosphere of 5% CO2 in air in axenic culture at 37°C in SM medium ([Cunningham, 1977]) at pH 5.4 supplemented with 10% heat-inactivated fetal bovine serum. 50 µL of culture medium was added in the wells of a 96-well plate and serial drug dilutions of eleven three-fold dilution steps covering a final range from 100 to 0.002 μg/ml were prepared. 50 µL culture medium with 2 × 10^5 amastigotes from axenic culture were added to each well. After 70 h of incubation the plates were inspected under an inverted microscope to assure growth of the controls and sterile conditions. 10 μl of resazurin (12.5 mg resazurin dissolved in 100 ml distilled water) were added to each well and the plates incubated for another 2 h. Then the plates were read with a Spectramax Gemini XS microplate fluorometer (Molecular Devices Cooperation, Sunnyvale, CA, USA) using an excitation wavelength of 536 nm and an emission wavelength of 588 nm. Data were analyzed using the software Softmax Pro (Molecular Devices Cooperation, Sunnyvale, CA, USA). Decrease of fluorescence (= inhibition) was expressed as percentage of the fluorescence of untreated control cultures and plotted against the drug concentrations. From the sigmoidal inhibition curves the IC50 values were calculated. Miltefosine was used as positive control drug. Assays were performed in two independent replicates at least.
(In general: The colour change of resazurin is a common sign of viable cells or microbes.)

Series [2] deals with L. donovani amastigotes in mouse peritoneal macrophages. Description: Activity against Leishmania donovani intramacrophage amastigotes (high-content imaging). The following applies: Leishmania donovani, Peritoneal macrophage, 96 h, read-out: IC50 L. donovani Intramacrophage. The format is cell-based. As to the method:
(§1) Macrophages were isolated from the mouse (CDI) peritoneal cavity ([Zhang et al., 2008]) using 2% starch solution as eliciting agent injected 2 day prior to cell harvest. Animal work was carried out according to the rules and regulations for the protection of animal rights (“Tierschutzverordnung”) of the Swiss “Bundesamt für Veterinärwesen” (License number 2374). Mouse peritoneal macrophages (4 × 10^4 in 100 µL RPMI 1640 medium with 10% heat-inactivated FBS) were seeded into wells of a 96-well plate. After 24 h, 2 × 10^5 amastigote L. donovani in 100 µL were added. The amastigotes were taken from an axenic amastigote culture grown at pH 5.4. The medium containing free amastigote forms was removed after 24 h and replaced with fresh medium. The washing step was repeated and afterward the serial drug dilution was prepared with at least 6 dilution steps. Compounds were dissolved in DMSO at 10 mg/ml and further diluted in medium. After 96 h of incubation at 37°C under a 5% CO2 atmosphere, the medium was removed, and cells were fixed by adding 50 µl 4% formaldehyde solution followed by a staining with a 5 µM DRAQ5 solution. Plates were imaged in ImageXpress XLS (MD) microscope using a 20× air objective (635 nm excitation: 690/50 emission). 9 images were collected per well. Automated image analysis was performed with a script developed on Meta Xpress Software (MD). Three outputs were provided for each well: i) number of host cell nuclei; ii) numbers of infected and non-infected host cells; iii) number of parasite nuclei per infected host cell. The IC50 values were calculated based on the infection rate and the numbers of intracellular amastigotes. The cytotoxicity to macrophages was determined in parallel, and IC50 values were calculated based on the numbers of surviving, uninfected macrophages. Miltefosine was used as control. Assays were performed in two independent replicates at least.

Series [3] has as its system T. b. rhodesiense STIB 900 bloodstream forms. Description: Activity against Trypanosoma brucei rhodesiense STIB900 (resazurin). Format: cell-based. The settings on record: for Selectivity index (SI): IC50 in L6 cells divided by IC50 in T. b. rhodesiense: L6 cells vs T. b. rhodesiense STIB 900; for IC50: Trypanosoma brucei, 70 h, STIB 900 bloodstream forms, 70 h + resazurin, mean ± absolute deviation. The protocol:
The stock was originally isolated from a patient and adapted to axenic culture conditions after several mouse passages and cloned. Minimum Essential Medium (50 µl) supplemented with 25 mM HEPES, 1 g/L additional glucose, 1% MEM non-essential amino acids (100×), 0.2 mM 2-mercaptoethanol, 1 mM Na-pyruvate ([Baltz et al., 1985]) and 15% heat inactivated horse serum was added to each well of a 96-well microtiter plate. Serial drug dilutions of eleven 3-fold dilution steps covering a range from 100 to 0.002 μg/ml were prepared. Then 4 × 10^3 bloodstream forms of T. b. rhodesiense STIB 900 in 50 µL were added to each well and the plate incubated for 70 h at 37°C and under a 5% CO2 atmosphere. 10 µL resazurin solution (resazurin, 12.5 mg in 100 ml double-distilled water) was then added to each well and incubation continued for a further 2–4 h ([Räz et al., 1997]). Plates were read with a Spectramax Gemini XS microplate fluorometer (Molecular Devices Cooperation, Sunnyvale, CA, USA) using an excitation wavelength of 536 nm and an emission wavelength of 588 nm. […] Melarsoprol (Arsobal Sanofi-Aventis, received from WHO) was used as control. Assays were performed in two independent replicates at least.

Series [4] has as its system P. falciparum NF54 erythrocytic stages. Description: Activity against Plasmodium falciparum (3H-hypoxanthine incorporation). The format is cell-based. The settings on record: for Selectivity index (SI): IC50 in L6 cells divided by IC50 in P. falciparum: L6 cells vs P. falciparum NF54. As to the method:
In vitro activity against the erythrocytic stages of P. falciparum was determined using a ^3H-hypoxanthine incorporation assay ([Desjardins et al., 1979]), using the drug sensitive NF54 strain ([Ponnudurai et al., 1981]). Compounds were dissolved in DMSO at 10 mg/ml and further diluted in medium before addition to parasite cultures incubated in RPMI 1640 medium without hypoxanthine, supplemented with HEPES (5.94 g/L), NaHCO3 (2.1 g/L), neomycin (100 U/ml), Albumax^R (5 g/L), and washed human red cells A^+ at 2.5% haematocrit (0.3% parasitemia). Serial drug dilutions of 11 three-fold dilution steps covering a range from 100 to 0.002 μg/ml were prepared. The 96-well plates were incubated in a humidified atmosphere at 37°C; 4% CO2, 3% O2, 93% N2. After 48 h, 50 μl of ^3H-hypoxanthine (=0.5 μCi) was added to each well of the plate. The plates were incubated for a further 24 h under the same conditions. The plates were then harvested with a Betaplate™ cell harvester (Wallac, Zurich, Switzerland), the red blood cells transferred onto a glass fibre filter, and lysed with distilled water. The dried filters were inserted into a plastic foil with 10 ml of scintillation fluid and counted in a Betaplate™ liquid scintillation counter (Wallac, Zurich, Switzerland). IC50 values were calculated from sigmoidal inhibition curves by linear regression using Microsoft Excel. Chloroquine (Sigma C6628) was used as control. Assays were performed in two independent replicates at least.

Series [5] in a line: In vitro cytotoxicity with L-6 cells (resazurin). The following applies: rat, L6 cells, 70 h + 2 h resazurin, mean ± absolute deviation. The format is cell-based, rat. As to the method: (§2) Assays were performed in 96-well microtiter plates, each well containing 100 µl of RPMI 1640 medium supplemented with 1% L-glutamine (200 mM) and 10% fetal bovine serum, and 4000 L-6 cells (a primary cell line derived from rat skeletal myoblasts) ([Ahmed et al., 1994]). Serial drug dilutions of 11 three-fold dilution steps covering a range from 100 to 0.002 μg/ml were prepared 24 h post seeding L-6 cells. The plates were incubated for 70 h and inspected under an inverted microscope to assure growth of the controls and sterile conditions. 10 µl of resazurin was then added to each well and the plates incubated for another 2 h. Then the plates were read with a Spectramax Gemini XS microplate fluorometer (Molecular Devices Cooperation, Sunnyvale, CA, USA) using an excitation wavelength of 536 nm and an emission wavelength of 588 nm. The IC50 values were calculated by linear regression and four-parameter logistic regression from the sigmoidal dose inhibition curves using SoftmaxPro software (Molecular Devices Cooperation, Sunnyvale, CA, USA). Podophyllotoxin (Sigma P4405) was used as positive control. All assays were performed in two independent replicates at least. Activities of all compounds were expressed in µM using the formula: […]

Series [6] can be described thus: Cytotoxicity to macrophages determined in parallel to the intramacrophage assay. The format is cell-based. The settings on record: CDI, surviving, uninfected mouse peritoneal macrophages. As to the method:
as §1

In series [7] the test system is L-6 cells (rat skeletal myoblasts). The series can be described thus: In vitro cytotoxicity with L-6 cells (resazurin). Format: cell-based. The settings on record: 70 h + 2 h resazurin, mean ± absolute deviation. The protocol: as §2
[8] abbreviates: pH 5.4, axenic amastigotes, MHOM/ET/67/L82, pH 5.4, 70 h + 2 h resazurin, read-out: IC50 L. donovani Axenic.
[9] abbreviates: amastigotes in mouse peritoneal macrophages.
Setting [10] is: Plasmodium falciparum, NF54, 72 h, NF54 drug sensitive strain, erythrocytic stages, 72 h, mean ± absolute deviation, read-out: IC50 P. falciparum.
Setting [11] is: Plasmodium falciparum, NF54, 72 h, read-out: IC50 P. falciparum, NF54 drug sensitive strain, erythrocytic stages, 72 h, mean ± absolute deviation.

On to `O=C1C[C@@H](c2ccc(O)cc2)Oc2cc(O)cc(O)c21` [Compound 4, Naringenin], for which the “Selectivity index (SI): IC50 in L6 cells divided by IC50 in L. donovani axenic amastigotes” value in series [1] is recorded as 5.6. In addition, the IC50 is 41.8 ± 9.3 µM in series [1] (setting [8]), more than 121 µM in series [2] (setting [9]) and 73.2 ± 5.9 µM in series [4] (setting [10]). For the same molecule, the “Selectivity index (SI): IC50 in L6 cells divided by IC50 in T. b. rhodesiense” value in series [3] turned out to be 1.3. Moreover, the “Selectivity index (SI): IC50 in L6 cells divided by IC50 in P. falciparum” value in series [4] stood at 3.2. Also, the IC50 at 70 h in series [5] (L-6 cells (rat skeletal myoblasts)) is 233 ± 36.9 µM. The molecule also registered an IC50 at 96 h in series [6] of 333 ± 18.2 µM.

On to `COc1ccc(-c2oc3cc(O)cc(O)c3c(=O)c2OC)cc1O` [Compound 5, Quercetin-3,4′-dimethylether], for which the “Selectivity index (SI): IC50 in L6 cells divided by IC50 in L. donovani axenic amastigotes” value in series [1] turned out to be 1.3. For the same molecule, the IC50 in series [1] (setting [8]) is 15 to 22 µM; in series [2] (setting [9]), more than 33.3 µM; in series [3] it was 6.6 ± 3.2 µM; in series [4] (NF54 drug sensitive strain, erythrocytic stages, 72 h, mean ± absolute deviation, read-out: IC50 P. falciparum), 18.2 ± 6.7 µM; in series [4] (setting [10]) it was less than 20 µM. In addition, in series [3], the “Selectivity index (SI): IC50 in L6 cells divided by IC50 in T. b. rhodesiense” value worked out at 2.9. Besides, in series [4], the “Selectivity index (SI): IC50 in L6 cells divided by IC50 in P. falciparum” value turned out to be 1.1. Besides, in series [7], the “IC50 L6 cells (cytotoxicity)” value is listed as “significant cytotoxicity”. The same molecule showed an IC50 at 96 h in series [6] of 42.7 ± 12.1 µM.

Consider `COc1cc(C(=O)O)ccc1O` [Compound 7, 3-Methoxy-4-hydroxybenzoic acid], for which the IC50 in series [1] (setting [8]) is 153 ± 45.5 µM; in series [2] (setting [9]) it was more than 595 µM; in series [3], 38.6 ± 5.9 µM; in series [4] (setting [10]) it was 138 ± 12.2 µM. For the same molecule, the “IC50 P. falciparum” value in series [4] (NF54 drug sensitive strain, erythrocytic stages, 72 h, mean ± absolute deviation) is “least active”. In addition, in series [5], the IC50 at 70 h was found to be 595 µM. This molecule registered an IC50 at 96 h in series [6] of more than 500 µM.

Turning to `COc1ccc(C[C@@H]2c3cc(OC)c(OC)cc3CCN2C)cc1O` [Compound 8, Laudanine], the IC50 in series [1] (pH 5.4, read-out: IC50 L. donovani Axenic, axenic amastigotes, MHOM/ET/67/L82, pH 5.4, 70 h + 2 h resazurin) was more than 150 µM; in series [2], more than 292 µM; in series [3], more than 80 µM; in series [4] (setting [11]), 78.6 ± 0.4 µM. In series [5], the IC50 at 70 h amounted to 292 µM. The molecule further yielded an IC50 at 96 h in series [6] of more than 200 µM.

For `COc1ccc(CC2c3cc(OC)c(OC)cc3CCN2C)cc1OC` (centres unmarked) [Compound 9, Laudanosine], the IC50 was more than 150 µM in series [1] (setting [8]), more than 186 µM in series [2] (setting [9]), more than 80 µM in series [3] and 76.1 ± 21.6 µM in series [4] (setting [11]). Also, in series [5], the IC50 at 70 h is 280 µM. In addition, the IC50 at 96 h in series [6] was more than 245 µM.

For `COc1cc(-c2oc3cc(O)cc(O)c3c(=O)c2O)ccc1O` [Compound 11, Isorhamnetin], in series [1], the “Selectivity index (SI): IC50 in L6 cells divided by IC50 in L. donovani axenic amastigotes” value is listed as 6.0. The IC50 was 21.7 ± 7.9 µM in series [1] (setting [8]); more than 210 µM in series [2] (setting [9]); 25.9 ± 5.4 µM in series [3]; approximately 20 µM in series [4] (setting [11]); 21.6 ± 0.7 µM in series [4] (read-out: IC50 P. falciparum, NF54 drug sensitive strain, erythrocytic stages, 72 h, mean ± absolute deviation). Further, in series [3], the “Selectivity index (SI): IC50 in L6 cells divided by IC50 in T. b. rhodesiense” value is recorded as 5.0. The “Selectivity index (SI): IC50 in L6 cells divided by IC50 in P. falciparum” value in series [4] is 6.0. Further, in series [5], the IC50 at 70 h stood at 130 ± 58.7 µM. For the same molecule, the IC50 at 96 h in series [6] was more than 199 µM.
